Source: patent publication US20110105393A1, “METHODS FOR PROMOTING STEM CELL PROLIFERATION AND SURVIVAL” (priority 2007, published 2011)

Columns and labels:
NSC cultures = test: Incidence of Tie-2 spikes in NSC cultures; format: cell-based; conditions: for % of cells with at least one spike: NSC cultures; for spike number: thirty minutes after treatment
Experimental: A protrusion of the cell membrane was identified in neuronal stem cells (NSCs) when the Tie-2 receptor is concentrated. This can be visualized using antibodies that bind Tie-2. The protrusion was termed a spike. These spikes appear 30 minutes after treatment with pharmaceutical agents. […] increase spike number thirty minutes after treatment. […] Thus, a novel sub-cellular structure ahs been identified. These structures could regulate the responsiveness of cells to treatments.
Thus, a novel protrusion of the cell membrane in NSCs has been identified where the Tie-2 receptor is concentrated. This can be easily visualized using an antibody against Tie-2 that recognizes a particular epitope. […] Indeed, the spike is devoid of actin filaments or tubulin. The spikes can be detected within thirty minutes of contacting the cultures with an the factors. Thus, the spikes provide a rapid assay for the effect of pharmacologic agents.

[1] = system: dopamine neurons in the substantia nigra; test: Fluorogold retrograde labelling of dopamine neurons in the substantia nigra, 6OHDA model; format: in vivo, rat; conditions: for neuroprotective effects on neurons: summary of in vivo treatments; for cell body diameter of TH+/Fluorogold+ cells in the substantia nigra: treatment 2-weeks following 6OHDA lesion, ipsilateral (FIG. 6e)
Experimental: (§1) Pharmacological treatments.
(§2) To investigate the clinical potential of this treatment approach, the compounds were used in an animal model of Parkinson's disease. Adult rats were lesioned by intra-striatal 6-OH-DA (Przedborski, S. et al., Neuroscience 67, 631-47, 1995). After two weeks, a single injection of the compounds was administered in the lateral ventricle ipsilateral to the lesion. Amphetamine-induced rotations were measured bi-weekly throughout the experiment. Thirteen weeks after treatment they were given a single injection of fluorogold in the striatum to label the […] dopaminergic projection.

6-OHDA lesioned rats = test: Amphetamine-induced rotometry in the 6OHDA lesion model of Parkinson's disease; format: in vivo, rat; conditions: for recovery in rotational bias: single intraventricular injection 2 weeks after lesion, measured over next 13 weeks, n=4-7 (FIG. 13a)
Experimental: as §1, §2

TH+ dopaminergic neurons = test: Tyrosine hydroxylase immunohistochemistry in striatum and substantia nigra, 6OHDA model; format: in vivo, rat; conditions: % ipsi- vs. contra-lateral TH optical density (FIG. 13b)
Experimental: as §1
(§3) Immunohistochemistry: Under deep anesthesia, animals were perfused transcardially with a rinse of saline, followed by 4% formaldehyde fixative (pH 7.4). Brains were removed immediately, stored in the fixative solution overnight and then in 30% sucrose for 3 days. Brains were frozen-sectioned at 16 μm. Immunohistochemical detection of BrdU and Hes3 was performed with an antigen-retrieval step (sections were boiled in 0.02M citrate, pH 6.0 in a microwave for 5 min, washed 3 times with distilled water, and incubated for 45 min in 2M HCl, at room temperature).
as §2
Immunohistochemistry: Under deep anesthesia, animals were perfused transcardially with a rinse of saline, followed by 4% formaldehyde fixative (pH 7.4). […]

[2] = system: proliferating (BrdU+) cells; test: BrdU+ proliferating cells after single intra-ventricular injection; format: in vivo, rat; conditions: BrdU days 2-4, sacrifice day 5
Experimental: as §1, §3
(§4) Hes3+ cells in the central nervous system (CNS) parenchyma were characterized and the means to activate the NSC compartment in vivo was investigated. Single injections of pharmacologically active compounds were performed in the lateral ventricle, bromodeoxyuridine (BrdU) was administered intraperitoneally (days 2-4) and the animals were sacrificed on day 5. At the subventricular zone (SVZ), a single intra-ventricular injection of Dll4 induced STAT3-S727 phosphorylation and Hes3 expression within 5 days. […] BrdU+ cell numbers were elevated in all these areas (FIG. 3a).

Hes3+ cells = Hes3+ cells after single intra-ventricular injection; format: in vivo, rat; conditions: for number of Hes3+ cells in the adult striatum and substantia nigra: single intracerebroventricular injection, within 5 days (FIG. 11); for number of stem cells/precursors in the adult brain: summary of in vivo treatments
Experimental: as §1, §3, §4
Immunohistochemistry: Under deep anesthesia, animals were perfused transcardially with a rinse of saline, followed by 4% formaldehyde fixative (pH 7.4). Brains were removed immediately, stored in the fixative solution overnight and then in 30% sucrose for 3 days. Brains were frozen-sectioned at 16 μm. Immunohistochemical detection of BrdU and Hes3 was performed with an antigen-retrieval step (Sections were boiled in 0.02M citrate, pH 6.0 in a microwave for 5 minutes, washed 3 times with distilled water, and incubated for 45 min in 2M HCl, at room temperature).

blood vessels (RECA-1) = test: Blood vessel number and size in striatum (RECA-1 staining) after 6OHDA lesion and treatment; conditions: for number and size of blood vessels in the striatum: 13 weeks after a single treatment, pattern recognition software; for blood vessel numbers or size (undesirable effects, summary): rat, in vivo
Experimental: Blood vessel counting and area quantitation: Zeiss software was used to identify, count, and measure blood vessels stained for the pan-endothelial marker RECA-1. To measure the average distance between adjacent Hes3+ cells along the same blood vessel, 25 high-power (×63) confocal z-stack images were used from brain sections stained for endothelial markers and Hes3.
6OHDA Lesion. Some animals underwent unilateral lesion of the nigrostriatal dopamine pathway by stereotactical injection of 50 μg 6-hydroxydopamine (6-OHDA) into the right striatum, using the following coordinates: bregma AP +0.5 mm, ML −3.0 mm, VD +5.5 mm.
Pharmacological treatments. Unlesioned animals, or animals two weeks after 6-OHDA lesion, were treated with different pharmacologic agents. Five microliters (μl) of different drugs were stereotactically injected into the right lateral ventricle using the following stereotaxic coordinates: bregma AP −0.9 mm, ML −1.4 mm, VD +3.8 mm. The following reagents were used: Dll4 (2 mg/ml), Ang-2 (1 mg/ml), insulin (8 mg/ml), Jak-Inhibitor (20 μM), either alone or in combination.
In vivo Experiments: Male adult (3-6 months) Sprague Dawley rats (Charles River Laboratories), weighing 250-350 gm, was used for pharmacological treatments and lesion experiments. For 6OHDA Lesion: animals underwent unilateral lesion of the nigrostriatal dopamine pathway by stereotactical injection of 50 μg 6-hydroxydopamine (6-OHDA) into the right striatum, using the following coordinates: bregma AP +0.5 mm, ML −3.0 mm, VD +5.5 mm. For pharmacological treatments: unlesioned animals, or animals two weeks after 6OHDA lesion, were treated with different pharmacologic agents. Five μl of different drugs were stereotactically injected into the right lateral ventricle using the following stereotaxic coordinates: bregma AP −0.9 mm, ML −1.4 mm, VD +3.8 mm. The following reagents were used: Dll4 (2 mg/ml), Ang2 (1 mg/ml), insulin (8 mg/ml), Jak-Inhibitor (20 μM), either alone or in combination. After all surgeries, animals were allowed to recover from the anesthesia and were put back into their home cages, where they were given access to food and water ad libitum. For labeling of dividing cells: Animals received intraperitoneal injection of the tracer bromodeoxyuridine (BrdU) (50 mg/kg) every 12 hours for 5 days beginning on day 1 post-op to label dividing cells. Amphetamine induced rotations: At multiple time points over the course of the experiment, lesioned rats were injected intra-peritoneally with D-Amphetamine sulfate (5 mg/kg) and placed in automated rotometer bowls. Rotational behavior was assessed by monitoring total number of whole body (360°) turns over 60 min.

[3] = 6OHDA lesioned, striatum, RECA-1 (FIG. 5c)

## Ang-2: human angiopoietin-2 (623-AN) from R&D; antagonist for angiopoietin-1 at Tie2
NSC cultures
  % of cells with at least one spike: 2.5%
  spike number: increase
[1]
  neuroprotective effects on neurons: exert neuroprotective effects
  cell body diameter of TH+/Fluorogold+ cells in the substantia nigra: increase
6-OHDA lesioned rats
  recovery in rotational bias: complete and stable recovery
TH+ dopaminergic neurons
  TH+ signal in the lesioned striatum: increase
[2]
  number of proliferating cells in the SVZ: increased
Hes3+ cells
  number of Hes3+ cells in the adult striatum and substantia nigra: increased
  number of stem cells/precursors in the adult brain: increase
Blood vessels (RECA-1); [3]
  number of vessels: significantly increased
Blood vessels (RECA-1)
  number and size of blood vessels in the striatum: opposing and long-lasting effects
  blood vessel numbers or size (undesirable effects, summary): increases the number and size of blood vessels

## Dll4: Notch ligand Delta-like 4; mouse Dll4 (1389-D4) from R&D
NSC cultures
  % of cells with at least one spike: 2.1%
  spike number: increase
[1]
  neuroprotective effects on neurons: exert neuroprotective effects
6-OHDA lesioned rats; single intra-ventricular injection 2 weeks after 6-OHDA lesion (FIG. 6a)
  amphetamine-induced rotations (behavioural recovery): long-lasting behavioural recovery
6-OHDA lesioned rats
  recovery in rotational bias: partial recovery
TH+ dopaminergic neurons
  TH+ signal in the lesioned striatum: increase
[2]
  number of proliferating cells in the SVZ: increased
Hes3+ cells; single intra-ventricular injection, within 5 days
  STAT3-S727 phosphorylation and Hes3 expression at the subventricular zone: induced
Hes3+ cells
  number of Hes3+ cells in the adult striatum and substantia nigra: increased
  number of stem cells/precursors in the adult brain: increase
Hes3+ cells; single ventricular injection
  numbers of Hes3+ and Tie-2+ precursor cells in the SVZ: rapidly increased
Blood vessels (RECA-1); [3]
  diameter of the vessels: significantly decreased
Blood vessels (RECA-1)
  number and size of blood vessels in the striatum: opposing and long-lasting effects
  blood vessel numbers or size (undesirable effects, summary): reduces the number and size of blood vessels

## insulin: insulin (Sigma, 19278), growth factor
[1]
  neuroprotective effects on neurons: exert neuroprotective effects
  cell body diameter of TH+/Fluorogold+ cells in the substantia nigra: increase
[2]
  number of proliferating cells in the SVZ: increased
Hes3+ cells
  number of stem cells/precursors in the adult brain: increase
Blood vessels (RECA-1); 6OHDA lesioned, end of experiment (FIG. 5c)
  effect on the vasculature (striatum, RECA-1): relatively small effect
Blood vessels (RECA-1)
  blood vessel numbers or size (undesirable effects, summary): increases the number of blood vessels adjacent to the injection site
